Assays:
[1] = system: MCF7; test: Antiproliferative activity against human MCF7 cells assessed as cell viability at 10^-4 M after 6 hrs by MTT assay relative to control; assay type: functional; settings: MCF7, 6 h, read-out: Activity
[2] = Antiproliferative activity against HEK293 cells assessed as cell viability at 10^-4 M after 6 hrs by MTT assay relative to control; assay type: cell-based; settings: human, read-out: Activity
[3] = target: T1, Aromatase (Homo sapiens, UniProt P11511)
T1 sequence (P11511 whole entry): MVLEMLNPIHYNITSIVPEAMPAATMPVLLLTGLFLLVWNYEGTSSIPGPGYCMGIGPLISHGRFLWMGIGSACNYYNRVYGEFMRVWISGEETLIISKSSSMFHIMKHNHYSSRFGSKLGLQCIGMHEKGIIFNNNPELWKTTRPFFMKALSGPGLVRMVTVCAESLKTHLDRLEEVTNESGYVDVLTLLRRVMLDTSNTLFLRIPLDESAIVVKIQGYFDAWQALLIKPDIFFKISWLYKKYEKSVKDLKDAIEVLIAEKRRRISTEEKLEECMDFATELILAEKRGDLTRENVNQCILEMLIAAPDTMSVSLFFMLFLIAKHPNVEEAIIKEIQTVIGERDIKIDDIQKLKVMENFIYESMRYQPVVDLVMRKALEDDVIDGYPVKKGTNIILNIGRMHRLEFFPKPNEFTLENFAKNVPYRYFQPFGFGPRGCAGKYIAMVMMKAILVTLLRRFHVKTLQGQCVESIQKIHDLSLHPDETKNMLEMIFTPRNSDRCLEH
Description: Inhibition of aromatase (unknown origin)

Compound	viability at 100 µM [1] [%]	viability at 6 h, 100 µM [2] [%]	IC50 [3] [nM]
Oc1ccc(Cl)cc1-c1csc(-c2ncccn2)n1	162	78	
Oc1cccc(-c2csc(-c3ncccn3)n2)c1	112	113	
c1cnc(-c2nc(-c3cc4ccccc4s3)cs2)nc1	120	83.5	
Oc1ccc(-c2csc(-c3ncccn3)n2)cc1	227	94	
Clc1ccc(-c2csc(-c3ncccn3)n2)cc1	146	101	
c1cncc(-c2csc(-c3cccnc3)n2)c1			4
c1cnc(-c2nc(-c3nc4ccccc4s3)cs2)nc1	60.7	117	
c1cnc(-c2nc(-c3cc4ccccc4o3)cs2)nc1	131	108	
COc1ccccc1-c1csc(-c2ncccn2)n1	130	87	
Clc1cccc(-c2csc(-c3ncccn3)n2)c1	86.9	107	
c1cnc(-c2nc(-c3ccco3)cs2)nc1	76	59	
Clc1ccccc1-c1csc(-c2ncccn2)n1	125	89.4	
c1cnc(-c2nc(-c3ccncc3)cs2)nc1	76.6	101	
Oc1ccccc1-c1csc(-c2ncccn2)n1	129	131	
c1ccc(-c2csc(-c3ncccn3)n2)nc1	74.2	101	
Cn1c(-c2csc(-c3ncccn3)n2)nc2ccccc21	128	102	
c1cnc(-c2nc(-c3cccnc3)cs2)nc1	75.5	89	
COc1cccc(-c2csc(-c3ncccn3)n2)c1	137	95	
c1ccc(-c2nsc(-c3ccccc3)n2)cc1			> 50000
c1cncc(-c2nsc(-c3cccnc3)n2)c1			240
c1cnc(-c2nc(-c3cccs3)cs2)nc1	136	77	
COc1ccc(O)c(-c2csc(-c3ncccn3)n2)c1	208	81.3	
COc1ccc(-c2csc(-c3ncccn3)n2)cc1	127	101	
Cc1ccc(O)c(-c2csc(-c3ncccn3)n2)c1	195	91.8	
